Data: patent US20050180962A1, “Inactivated probiotic bacteria and methods of use thereof” (priority 2003, published 2005)

Legend:
TNBS-induced colitis = assay: TNBS-induced colitis; type: in vivo, Balb/c mice; conditions: s.c. once 2 hours before TNBS; day 7; mean±SEM
Experimental: Trinitrobenzenesulfonic acid (TNBS) colitis was induced in 8 week old, Balb/c mice by rectal instillation of 0.5 mg/mouse of 2,4,6-trinitrobenzene sulfonic acid (Sigma) dissolved in 0.1 ml of 50% ethanol as described. Rachmilewitz et al. (2002), supra.
(§1) Mice were sacrificed 7 days after the induction of colitis. All studies were performed in a blind fashion.
(§2) Various DNA preparations (ISS-ODN and control-ODN, 30 μg/mouse; probiotic DNA, methylated probiotic DNA, E. coli DNA and calf thymus DNA, 50 μg/mouse) and DNase treated probiotics (i.e., the amount of microorganisms that yielded 50 μg of probiotic DNA) were s.c. injected 2 hrs prior to the administration of DSS or TNBS. In another experiment 50 μg of these DNA preparations were administered i.g. or intrarectally (i.r.) 2 hrs prior to DSS administration. In the IL-10 deficient colitis model, ten-week old mice were treated s.c. once a week with the various DNA preparations (see above), and this treatment continued for 4 weeks as described (Rachmilewitz et al. (2002) supra). The disease-activity score, histological score, and colonic myeloperoxidase (MPO) activity were determined as described (Rachmilewitz et al. (2002) supra).

DSS-induced colitis = DSS-induced colitis (DSS 3.5% in drinking water, 7 days); type: in vivo, Balb/c mice; design: key to Histological Score: summed histological score, 0 (minimum) to 20 (maximum); conditions: for Disease Activity Score / Histological Score / MPO: mean±SEM
Experimental: To induce dextran sodium sulfate (DSS) colitis, DSS (Sigma) was given in the drinking water for 7 days. Preliminary studies were performed to identify the concentration of DSS in the drinking water required to elicit a similar disease activity score in different mouse strains.
as §1
Probiotics, including live probiotics, irradiated probiotics, and heat killed probiotics, were intragastrically (i.g.) given starting 10 days prior to the induction of colitis and for 7 days thereafter. In preliminary studies, mice were treated daily by i.g. administration of 0.28×10^8, 2.8×10^8 or 28×10^8 CFU of irradiated probiotics per mouse per day.
In another experiment 50 μg of these DNA preparations were administered i.g. or intrarectally (i.r.) 2 hrs prior to DSS administration. In the IL-10 deficient colitis model, ten-week old mice were treated s.c. once a week with the various DNA preparations (see above), and this treatment continued for 4 weeks as described (Rachmilewitz et al. (2002) supra). The disease-activity score, histological score, and colonic myeloperoxidase (MPO) activity were determined as described (Rachmilewitz et al. (2002) supra).
A mouse model of colitis was used and assessed, as described. Rachmilewitz et al. (2002) Gastroenterology 122:1428-1441. Colitis was induced by adding dextran sodium sulfate (DSS, Sigma), 3.5% to the drinking water, and allowing them to drink ad libitum. Seven days after induction of colitis, mice were weighed and inspected for diarrhea and rectal bleeding. The mice were sacrificed, and the entire colon was dissected and its length measured and weighed. Scores were again defined as follows: Changes in body weight: No loss—0; 5 to 10%—1; […], —2; 15 to 20%, —3; >20%—4. Hemoccult: No blood, —0; positive, —2; gross blood, —4. Mucosal samples were processed for determination of MPO activity according to: Bradley (1982) J Invest Dermatol 78:206-9.
When indicated, sections from the distal colon were fixed in buffered formalin and routine 5 μm sections were prepared and stained with hematoxylin and eosin. Stained sections were examined blindly and scored. The scoring system took into account the depth of the ulcer, the extent of the ulcer, presence of inflammation, extent of inflammation, and location of fibrosis. Minimal score was 0 and maximal score was 20. Scoring was as follows for depth of the ulcer: 0=no ulcer; 1—mucosal involvement; 2—mucosal+submucosal involvement; 3=penetration of muscularis propria; 4=full thickness involvement. Scoring was as follows for extent of the ulcer: 0=no ulcer; 1=punctate; 2=minimal; 3=moderate; 4=widespread. Scoring was as follows for presence of inflammation: 0=none; 1=minimal; 2=mild; 3=moderate; 4=severe. Scoring was as follows for extent of inflammation: 0=none; 1=mucosal; 2=mucosal+submucosal involvement; 3=mucosal+submucosal+muscle penetration; 4=full thickness involvement. Scoring was as follows for location of fibrosis: 0=none; 1=mucosa only; 2=mucosa+submucosa; 3=including muscle layer; 4=full thickness fibrosis.
Fifty mg colonic mucosal scrapings were homogenized with a polytron (Kinematica GmbH, Krienz-Luzem, Switzerland) in ice-cold hexadecyltrimethyl ammonium bromide (0.5%) in 50 mM phosphate buffer, pH 6.0. The homogenate was sonicated for 10 seconds, freeze-thawed three times, and centrifuged for 15 minutes. An aliquot of the supernatant was taken for determination of myeloperoxidase (MPO) enzyme activity, as described (Rachmilewitz et al. (2002) supra).

commensal flora = assay: Effect of chloroquine on stool flora of mice; type: in vivo; conditions: 10 mg/kg s.c. daily for 7 days versus saline
Experimental: Control group was treated s.c. daily with 0.2 ml of saline. After 7 days, stool samples were collected, homogenized and cultured on blood, Maconkey, phenylethanol, chocolate, M.R.S., and anaerobic agars.

[1] = test system: chronic DSS-induced colitis; assay: Chronic DSS-induced colitis (treatment model); type: in vivo, Balb/c mice
Experimental: To evaluate whether probiotics are effective not only in the prevention but also in the treatment of colitis the following experiment was performed: Mice were treated for 7 days with DSS 3.5% added to the drinking water. From the 8th day until sacrifice on day 15, the concentration of DSS in the drinking water was reduced to 1.75%. During the 15 days of the experiment, 2 groups of mice were treated daily i.g. with viable or with irradiated probiotics 2.8×10^8 CFU. A third group was treated s.c. on day 8 with ISS-ODN (10 μg) and a fourth control group was treated i.g. daily with 0.2 ml of saline. […] The colon was isolated, weighed, sections were taken for histology and mucosal samples were obtained for MPO determination.

TLR9 = assay: IL-12 (p40) and IL-6 secretion by macrophages (ELISA); type: cell-based, mice; conditions: TLR9 null macrophages, 24 hours post-stimulation
[2] = test system: spontaneous colitis in IL-10 KO mice; assay: Spontaneous colitis in IL-10 KO mice; type: in vivo, IL-10 KO mice (B6); conditions: s.c. once a week for 4 weeks; mean±SEM
Experimental: as §2

[3] = i.g., 50 μg once 2 hours before DSS
[4] = s.c. once 2 hours before DSS, ODNs 30 μg/mouse, DNAs 50 μg/mouse
[5] = DSS 3.5% 7 days then 1.75% 7 days, probiotics 2.8×10^8 CFU i.g. daily, ISS-ODN 10 μg s.c. day 8, day 15, mean±SEM
[6] = i.r., 50 μg once 2 hours before DSS

Compound | Disease Activity Score (TNBS-induced colitis) | Histological Score (TNBS-induced colitis) | MPO (TNBS-induced colitis) | Disease Activity Score (DSS-induced colitis; [3]) | Histological Score (DSS-induced colitis; [3]) | MPO (DSS-induced colitis; [3]) | Disease Activity Score (DSS-induced colitis; [4]) | Histological Score (DSS-induced colitis; [4]) | MPO (DSS-induced colitis; [4]) | also measured
5′-TGACTGTG AAGGTTAGAGATGA-3 (DNA TGACTGTGAAGGTTAGAGATGA; DNA, all phosphorothioate, methylation of C not given here) [Control-ODN] | 1.3 ± 0.2 | 4.8 ± 1.8 | 2.00 ± 0.30 U/gr | 6.7 ± 0.8 | 5.7 ± 0.3 | 1.90 ± 0.20 U/gr | 3.8 ± 0.7 | 8.0 ± 0.9 | 4.2 ± 0.8 U/gr | 
CCN(CC)CCCC(C)Nc1ccnc2cc(Cl)ccc12 (stereo not drawn) [Chloroquine, chloroquine] |  |  |  |  |  |  |  |  |  | identity or quantity of bacterial strains grown from the stool (commensal flora): No significant differences; MPO (DSS-induced colitis; colonic MPO, probiotics 2.8×10^8 CFU i.g. daily, chloroquine 10 mg/kg s.c. daily, DSS 3.5% 7 days): 1.54 ± 0.16 U/gr; Histological Score (DSS-induced colitis; probiotics 2.8×10^8 CFU i.g. daily, chloroquine 10 mg/kg s.c. daily, DSS 3.5% 7 days): 8.0 ± 0.8
5′-TGACTGTGAACGTTCGAGATGA-3′ [ISS-ODN] | 0.4 ± 0.3 | 0 ± 0 | 0.8 ± 0.10 U/gr | 3.6 ± 0.7 | 2.8 ± 0.6 | 1.09 ± 0.10 U/gr | 0.4 ± 0.4 | 0 ± 0 | 0.9 ± 0.1 U/gr | Disease Activity Score [1, 5]: 1.1 ± 0.4; Histological Score [1, 5]: 6.9 ± 0.8; MPO [1, 5]: 1.25 ± 0.19 U/gr; severity of chronic DSS induced colitis ([1]; given with or after induction of colitis): equally attenuate the severity; secretion of p40 or IL-6 (TLR9): did not induce; Histological Score [2]: 1.8 ± 1.2; MPO [2]: 0.8 ± 0.10 U/gr; outcome of colitis (DSS-induced colitis; i.r. administration, once 2 hrs before DSS): had no effect; Disease Activity Score (DSS-induced colitis; [6]): 6.3 ± 0.7; Histological Score (DSS-induced colitis; [6]): 5.9 ± 0.7; MPO (DSS-induced colitis; [6]): 1.90 ± 0.30 U/gr; severity of DSS-induced colitis (DSS-induced colitis; intragastric or s.c. administration, once 2 hrs before DSS): inhibited the severity
